System: cells
Assay: Intracellular retention of nitroxides (FIG. 7)
Assay type: cell-based
Excerpt: The exponential life time (τ) is related to the half-life (t½): t½=0.693τ.
It is evident that nitroxide has a significant increase in retention time and approximately a 4-fold improvement over nitroxide and a 12 fold increase over nitroxide.

For `CC1(C)CC(CN(CC(=O)O)CC(=O)O)C(C)(C)N1[O]` (stereo not drawn) [nitroxide [3], (2,2,5,5-tetramethylpyrrolidin-1-oxyl-3-ylmethyl)amine-N,N-diacetic acid], the “intracellular retention life time (single-exponential fits), comparison in words” value (FIG. 7, nitroxides [1]-[3] compared) was “longest life time within the cells”, the “intracellular retention time, improvement over nitroxide [2]” value (FIG. 7, retention within cells) was ~4 fold and the “intracellular retention time, increase over nitroxide [1]” value (FIG. 7, retention within cells) was ~12 fold.
